Reference: PubChem BioAssay AID463229 (Broad Institute, 2010)
Calls of active or inactive are those of the source.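 The calls were made as follows: active = compounds raising the signal whose fitted half-maximal concentration is at or below their top tested dose (cut at about 25 µM in these data); inconclusive = flat fit at 30 to 70% activity, or a poor fit; inactive = the rest.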

These compounds were tested on INS-1E rat beta cells, no cytokines, CellTiter-Glo ATP, 48 h (assay: ATP level change in INS-1E without cytokines, dose response, counter-screen for beta-cell apoptosis protection project, INS-1E rat cells, ATP luminescence, cherry pick (AID 463229)).
CCS(=O)(=O)c1ncc(Cl)c(C(=O)Nc2ccc(S(=O)(=O)N3CCC(C)CC3)cc2)n1 was tested, and the AC50 was 7.4 µM.
O=C(NCc1cccnc1)c1cc(-c2ccco2)on1 was tested, and the AC50 was 2.27 µM.
Work on O=C(Nc1ccc([N+](=O)[O-])cc1)Nc1ccc(Cl)cc1F yielded an AC50 of 6.71 µM.
COc1ccc(O)c(/C=N/NC(=S)Nc2cccnc2)c1 showed an AC50 of 15.6 µM.
Compound Nc1nc(Cl)cc(N2CCC(c3cc(-c4ccc(Cl)cc4)n[nH]3)CC2)n1 has an AC50 of 5.56 µM.
Work on Cc1ccc(C(=O)N/C(=C\c2ccc(-c3ccc(Br)cc3)o2)C(=O)NCCCN(C)C)cc1 yielded an AC50 of 7.87 µM.
For Fc1ccccc1/C=N/Nc1nc(-c2ccccn2)nc2ccccc12, the AC50 was 3.49 µM.
In the case of Nc1ccc(Br)cc1-c1nc2ccccc2[nH]c1=O, the AC50 is reported as 1.32 µM.
COC(=O)c1ccccc1NC(=O)c1nc(S(=O)(=O)Cc2ccccc2)ncc1Cl showed an AC50 of 7.98 µM.
Oc1c(CN2CCN(c3ccccn3)CC2)cc(Cl)c2cccnc12 was tested, and the AC50 was 5.4 µM.
With Cc1cc(OCc2nc(-c3ccc(NC(=O)c4cccnc4)cc3)no2)ccc1Cl the AC50 was 1.16 µM.
For CC(C)C[C@H](NC(=O)c1nc[nH]c1C(=O)N[C@@H](CC(C)C)C(=O)OC(C)(C)C)C(=O)OCc1ccccc1, the AC50 was 14.6 µM.
For CCN1CCN(c2c(Cl)cccc2NC(=O)c2ccc([N+](=O)[O-])o2)CC1, the AC50 was 7.11 µM.
Fc1ccc2nc(Nc3nc4c(F)cc(F)cc4s3)sc2c1 gave an AC50 of 7.69 µM.
Cc1ccc(C)c(N=Nc2ccc(O)c3ncccc23)c1 gave an AC50 of 3.98 µM.
Compound CCOc1ccc(N=Cc2c(C)[nH]n(-c3nc4ccccc4[nH]3)c2=O)cc1 has an AC50 of 2.83 µM.
Compound Cc1nnc(N/N=C/c2cc([N+](=O)[O-])c(N3CCC(C)CC3)cc2N2CCC(C)CC2)n1N has an AC50 of 2.54 µM.
COc1cccc(/C=N/NC(=O)CN2CC(c3ccccc3)CC2=O)c1O (stereo not given) gave an AC50 of 18.7 µM.
COc1ccc(CNC(=O)c2c(C)oc3c2C(=O)c2ccccc2C3=O)cc1 gave an AC50 of 7.42 µM.
Work on O=C(Nc1nc2ccc(F)cc2s1)C1CCN(S(=O)(=O)c2cc([N+](=O)[O-])ccc2Cl)CC1 yielded an AC50 of 7.01 µM.
Compound COc1ccc(C)cc1Nc1n[n+](-c2ccccc2)c(-c2ccc(OC)c(OC)c2OC)s1 has an AC50 of 14.5 µM.
O=C(N/N=C/c1cnc(N2CCCCC2)s1)c1ccc(C(F)(F)F)cc1 gave an AC50 of 6.66 µM.
FC(F)(F)c1cnc(NNC(=S)Nc2ccccc2Cl)c(Cl)c1 was tested, and the AC50 was 7.03 µM.
In the case of Cc1ccc(Cl)cc1N1CCN(C(=O)CSc2nnc3n2C(C)(C)Cc2ccccc2-3)CC1, the AC50 is reported as 7.07 µM.
Work on Cc1cccc(CSC(Nc2ccc(F)cc2)=C(C#N)C#N)c1 yielded an AC50 of 5.85 µM.
Compound CCCOc1ccc(/C=N/NC(=S)Nc2ccccc2[N+](=O)[O-])c(O)c1 has an AC50 of 7.44 µM.
Compound O=S(=O)(c1cc(F)ccc1F)N1CCN(c2ncnc3ccccc23)CC1 has an AC50 of 5.01 µM.
With O=C(N/N=C(\c1ccccc1)c1cccnc1)c1cccc(F)c1 the AC50 was 2.56 µM.
In the case of Cc1cc(C)c(C)c(S(=O)(=O)N2CCN(c3ncnc4ccccc34)CC2)c1C, the AC50 is reported as 6.34 µM.
Work on NC(N)=NC(N)=Nc1ccc(SC(F)(F)F)cc1 yielded an AC50 of 2.76 µM.
Compound CCCCC(=O)NC(c1cccs1)c1cc(Cl)c2cccnc2c1O (stereo not given) has an AC50 of 5.89 µM.
With COc1ccc(/C=C/C(=O)c2ccc([N+](=O)[O-])o2)cc1OC the AC50 was 4.93 µM.
In the case of Cc1cc(/C=C2/SC(=S)N(c3ccc([N+](=O)[O-])cc3)C2=O)c(C)n1-c1cccnc1, the AC50 is reported as 0.912 µM.
In the case of CCN(CC)c1ccc2nc3ccccc3[n+](CC)c2c1, the AC50 is reported as 3.19 µM.
COc1cc(/C=C2\CC/C(=C\c3cc(OC)c(O)c(OC)c3)C2=O)cc(OC)c1O gave an AC50 of 4.29 µM.
In the case of CCC(CO)[n+]1c(C)cc(/C=C2\Sc3ccccc3N2Cc2ccccc2)cc1C (stereo not given), the AC50 is reported as 0.765 µM.
CCCCOc1ccc(C(=O)NNC(=S)NC(=O)CC)cc1 gave an AC50 of 14.3 µM.
c1nc(NCc2ccc3c(c2)OCO3)c2cc(-c3ccc4c(c3)OCCO4)ccc2n1 showed an AC50 of 15.5 µM.
With C#CCOCCOCCOCCNc1nc(N2CCN(C(=O)CCCCCCCCCCNC(=O)[C@H](CCCCN)n3cc(C)nn3)CC2)nc(N2CCN(C(=O)CCCCCCCCCCNC(=O)[C@@H]([C@H](C)CC)n3cc(CCCCCN)nn3)CC2)n1 the AC50 was 6.78 µM.
COc1ccc(-[n+]2c(-c3ccccc3)cc(-c3ccccc3)cc2-c2ccccc2)cc1 was tested, and the AC50 was 1.71 µM.
Compound CN1CCN(c2ccc([N+](=O)[O-])c3no[n+]([O-])c23)CC1 has an AC50 of 1.9 µM.
O=C(N/N=C\c1ccc([N+](=O)[O-])s1)c1cncc(Br)c1 gave an AC50 of 6.53 µM.
Compound Oc1ccc2ccccc2c1N=Nc1ccccn1 has an AC50 of 4.14 µM.
Cc1ccc(-c2cc(-c3ccc(C)cc3)[n+](-c3ccccc3)c(-c3ccc(C)cc3)c2)cc1 gave an AC50 of 0.577 µM.
With C[n+]1c2n(c3ccccc31)N=C(c1ccc(-c3ccccc3)cc1)CS2 the AC50 was 1.74 µM.
For Cc1cc(/C=N/n2cnnc2)c(C)n1-c1ccc(OCc2ccccc2F)cc1, the AC50 was 4.05 µM.
For CCC[C@@H](CN1CCC[C@H]1CN1C(N)=NC[C@@H]1Cc1ccccc1)N1C[C@@H]([C@H](C)CC)N(CCCC2CCCC2)C1=N, the AC50 was 7.72 µM.
Cn1nccc1C(=O)NC1CCCc2c1cnn2-c1ccc(C(C)(C)C)cc1 (stereo not given) showed an AC50 of 2.11 µM.
Work on CC(C)(C)c1cc(NCCCn2ccnc2)n2ncc(-c3ccccc3)c2n1 yielded an AC50 of 15 µM.
O=NN(CCc1ccncc1)c1ccc(OCc2ccccc2)cc1 was tested, and the AC50 was 8.16 µM.
CC(C)[C@H]1C(=O)O[C@H](C(C)C)C(=O)N(C)[C@@H](C(C)C)C(=O)O[C@H](C(C)C)C(=O)N(C)[C@@H](C(C)C)C(=O)O[C@H](C(C)C)C(=O)N1C showed an AC50 of 3.8 µM.
Compound c1ccc(CNc2nc(NCc3ccccc3)c3ccccc3n2)cc1 has an AC50 of 11.1 µM.
Cc1ccc(OCCN2CCN(c3ncnc4sc(C)c(C)c34)CC2)cc1 showed an AC50 of 4.03 µM.
Compound Cc1ccc(C(=O)OCn2ncc(Cl)c(Cl)c2=O)cc1 has an AC50 of 7.77 µM.
Work on Cc1ccc(C(=O)C[n+]2cc(-c3ccccc3)n3c2CCCCC3)cc1 yielded an AC50 of 6 µM.
For N#C/C(=C/c1ccc(N2CCCCCC2)o1)c1ccc(Cl)cc1, the AC50 was 24.3 µM.
For CCCCNC1=CC(=O)C(=O)c2ccccc21, the AC50 was 7.75 µM.
Work on Cc1ccc(NS(=O)(=O)c2cc([N+](=O)[O-])ccc2NNC(=S)Nc2cc(C)ccc2C)c(C)c1 yielded an AC50 of 4.65 µM.
Compound CCc1c(C)sc2nc(C(C)C)nc(SCC(=O)N3CCc4ccccc4C3)c12 has an AC50 of 2.08 µM.
COc1cc(C(=O)N/N=C(\c2ccccc2)c2ccccn2)cc(OC)c1OC showed an AC50 of 3.3 µM.
COc1ccc(C(=O)N(C)c2ccccc2C(=O)NCCc2ccccc2)cc1 showed an AC50 of 7.85 µM.
In the case of c1ccc2c(CNC3CCCCC3)c[nH]c2c1, the AC50 is reported as 6.79 µM.
For CCOC(=O)C(C(C)=O)c1c(Br)c(O)c(O)c2c(C(=O)c3ccc(C)cc3)coc12 (stereo not given), the AC50 was 2.9 µM.
Cc1ccc(NC(=O)Nc2cccc([N+](=O)[O-])c2)cc1F gave an AC50 of 8.06 µM.
Compound C[C@H]1CCC/C=C/C2C[C@H](O)CC2[C@H](O)/C=C/C(=O)O1 (stereo not given in full) has an AC50 of 0.94 µM.
For O=C(N/N=C(\c1ccccc1)c1ccccn1)c1cccc([N+](=O)[O-])c1, the AC50 was 2.11 µM.
Work on COc1ccc(C2/C=C\CN(C(=O)c3ccccc3)[C@H](Cc3ccccc3)C(=O)N2Cc2ccc(F)cc2)cc1 (stereo not given in full) yielded an AC50 of 7.75 µM.
O=C(N/N=C/c1sc(N2CCOCC2)nc1-c1ccccc1)c1cccc(S(=O)(=O)N2CCCC2)c1 was tested, and the AC50 was 2.25 µM.
CCOc1cccc(/C=N/NC(=O)c2ccc3c(c2)OCCO3)c1O showed an AC50 of 8.21 µM.
CN(C)C(=O)c1ccc(NC(=O)c2cccnc2)cc1 was tested, and the AC50 was 7.27 µM.
In the case of CCCCCn1c(=O)c(C(=O)NC(C)c2ccccc2)c(O)c2ccccc21 (stereo not given), the AC50 is reported as 4.19 µM.
In the case of COC(=O)c1cc(O)cc(OC)c1Oc1cc(C)cc(O)c1C(=O)O, the AC50 is reported as 5.37 µM.
NS(=O)(=O)c1ccc(N/N=C/c2cn(-c3ccccc3)nc2-c2cccs2)c([N+](=O)[O-])c1 showed an AC50 of 5.61 µM.
With CN1/C(=C\C(=O)COC(=O)c2ccc(O)c(O)c2)C(C)(C)c2ccccc21 the AC50 was 10.1 µM.
Work on COc1cccc2sc(Nc3nc(-c4ccccn4)cs3)nc12 yielded an AC50 of 3.75 µM.
For COc1cc(NC(=O)c2ccccc2NS(=O)(=O)c2ccc(Cl)s2)cc(OC)c1, the AC50 was 6.97 µM.
Cc1ccc(S(=O)(=O)Nc2cc(Cl)c(O)c3ncccc23)cc1 was tested, and the AC50 was 4.38 µM.
Work on Oc1c(CN2CCOCC2)cc(COCc2ccccc2)c2cccnc12 yielded an AC50 of 8.19 µM.
Compound CCCCCCCCCCCCCCCC[N+](C)(C)CCN(Cc1ccc(OC)cc1)c1ncccn1 has an AC50 of 4.23 µM.
Compound Cc1cccc2sc(NNC(=O)c3ccc(S(=O)(=O)N4CCCC(C)C4)cc3)nc12 (stereo not given) has an AC50 of 6.74 µM.
For Brc1ccc(CN2CCN(Cc3c[nH]c4ccccc34)CC2)cc1, the AC50 was 6.91 µM.
In the case of C/C(=N\NC(=O)C(c1ccccc1)c1ccccc1)c1ccccn1, the AC50 is reported as 8.03 µM.
With CC(CNC(=O)c1ccc(OC2CCN(Cc3ccccn3)CC2)cc1)Oc1cccnc1 (stereo not given) the AC50 was 7.36 µM.
CC(C)C[C@H]1CN=C(Nc2ccccc2)N1CCc1ccc(F)cc1 was tested, and the AC50 was > 26 µM (inactive).
Work on CNC(=O)c1sc(N2N=C3/C(=C/c4ccccc4)CCCC3C2c2ccccc2)nc1C (stereo not given) yielded an AC50 of 5.11 µM.
In the case of O=C(/C(=C/c1ccc(Cl)cc1)c1nc2ccccc2[nH]1)c1ccccc1, the AC50 is reported as 4.04 µM.
With N/C(=N\NC(=O)c1sccc1OCc1ccc(Cl)cc1Cl)c1ccccn1 the AC50 was 11.8 µM.
COc1ccc(CCNc2ccc(C(CC(N)=O)NC(=O)c3ccc(Br)cc3)cc2[N+](=O)[O-])cc1 (stereo not given) was tested, and the AC50 was 16.8 µM.
COc1cc(CC(=O)Nc2nc(-c3ccc(F)c(F)c3)cs2)cc(OC)c1OC gave an AC50 of 7.17 µM.
For COc1cc(/C=C(/C(=O)c2cccs2)c2nc3ccccc3[nH]2)ccc1O, the AC50 was 12.9 µM.
With Cc1cc(C)c2nc(NNC(=O)c3ccc(S(=O)(=O)N4CC(C)CC(C)C4)cc3)sc2c1 (stereo not given) the AC50 was 4.75 µM.
Work on COC(=O)c1ccc2c(=O)n(-c3ccccc3)c(SCN3C(=O)c4ccccc4C3=O)nc2c1 yielded an AC50 of 3.86 µM.
O=[N+]([O-])c1cccc2c(N3CCCC3)ccnc12 was tested, and the AC50 was 7.28 µM.
O=S1(=O)C=C(Sc2nc3ccccc3s2)c2ccccc21 was tested, and the AC50 was 5.35 µM.
With O=[N+]([O-])c1ccc(O)c(/C=N/NC(=S)Nc2ccc(Cl)cc2Cl)c1 the AC50 was 17.9 µM.
With CCN(CC)c1ccc(/C=N/NC(=S)NCc2ccccc2)c(O)c1 the AC50 was 12.3 µM.
Work on O=[N+]([O-])c1ccc(O)c(-c2cc(C(F)(F)F)nc(-c3ccccc3)n2)c1 yielded an AC50 of 1.59 µM.
O=C(NC(=S)NNC(=O)c1cnccn1)c1ccc(F)cc1 was tested, and the AC50 was 3.48 µM.
Cn1c(/C=C/c2ccc([N+](=O)[O-])o2)nc2ccccc2c1=O gave an AC50 of 3.56 µM.
COc1ccc(CCNc2ncnc3sc(C)cc23)cc1OC gave an AC50 of 1.33 µM.
CCc1ccc(CN(C)C(=O)c2cc(COc3cccc4cnccc34)on2)cc1 showed an AC50 of 7.91 µM.
Compound C(=C\c1nc(N2CCCCCC2)c2ccccc2n1)/c1ccccc1 has an AC50 of 5.15 µM.
Compound O=C(N/N=C\c1c(O)ccc2ccccc12)c1ccc(S(=O)(=O)N2CCCCC2)cc1 has an AC50 of 1.11 µM.
CC(=O)Nc1sc2c(c1-c1nc3ccccc3s1)CN(C(C)C)CC2 showed an AC50 of 3.79 µM.
Work on CCOc1cc(N2CCOCC2)c(OCC)cc1NC(=O)COc1cccc2cccnc12 yielded an AC50 of 3.61 µM.
